Patent US4198502A, “Aminopyrrole derivatives” (Gruppo Lepetit S.p.A., priority 1973, dated 1980)

Tests used:
[1] = acute toxicity (LD50), procedure of Lichtfield and Wilcoxon; settings: mouse, in vivo, po, mice
Protocol: (§1) An aspect of the anti-inflammatory utility was evidenced by means of the carrageenin-induced edema test in rats, which was performed according to the methodology described by C. A. Winter et al., Proc. Soc. Exptl. Biol. Med., 111, 544, 1962. […] It is also to be noted that the toxicities of the aminopyrrole derivatives which are the object of the present invention are very low; with few exceptions, their LD50 values are always higher than 1000 mg/kg p.o. in mice. Toxicities were determined according to the procedure described by Lichtfield and Wilcoxon, J. Pharm. Exp. Therm., 96, 99, 1949.

[2] = tested on: carrageenin-induced edema; assay: carrageenin-induced edema test in rats (anti-inflammatory); format: in vivo; settings: Rattus norvegicus, po, read-out: % Decrease of the induced edema; for inhibition in vivo at 100 mg/kg: 100 mg/kg p.o.; for inhibition in vivo at 200 mg/kg: 200 mg/kg p.o.; for inhibition in vivo at 5 mg/kg: 5 mg/kg p.o.; for inhibition in vivo at 10 mg/kg: 10 mg/kg p.o.; for inhibition in vivo at 20 mg/kg: 20 mg/kg p.o.; for inhibition in vivo at 50 mg/kg: 50 mg/kg p.o.
Protocol: as §1
The following Table summarizes the aforementioned anti-inflammatory action and LD50 values.

[3] = CNS-depressant utility, general method of S. Irwin; settings: in vivo
Description: This characteristic was investigated according to the general method proposed by S. Irwin, Psychopharmacologia (Berl.), 13, 222, 1968. […] This is undoubtedly another vary favorable characteristic of the inventive compounds, as a certain sedative and myorelaxing effect is useful in patients affected by severe inflammatory disease.

## CC(=O)c1c(C)[nH]c(-c2ccc(F)cc2)c1N [Example 17, 4-Acetyl-3-amino-2-(p-fluorophenyl)-5-methylpyrrole]
[1]
  LD50: > 1000 mg/kg
[2]
  inhibition in vivo at 100 mg/kg: 35.4%
  inhibition in vivo at 200 mg/kg: 47.9%

## CC(=O)c1c(C)[nH]c(-c2ccccc2)c1N.Cl [Example 1, 4-Acetyl-3-amino-5-methyl-2-phenylpyrrole hydrochloride]
[1]
  LD50: > 1000 mg/kg
[3]
  sedative and myorelaxing activity: good degree of sedative and myorelaxing activity
[2]
  inhibition in vivo at 5 mg/kg: 23.4%
  inhibition in vivo at 10 mg/kg: 32.5%
  inhibition in vivo at 20 mg/kg: 39%
  inhibition in vivo at 50 mg/kg: 43.8%
  inhibition in vivo at 100 mg/kg: 58.9%
  inhibition in vivo at 200 mg/kg: 76.6%

## CCCC(=O)c1c(CCC)[nH]c(-c2ccccc2)c1N.Cl [Example 34, 3-Amino-4-butyryl-2-phenyl-5-propylpyrrole hydrochloride]
[1]
  LD50: ~1000 mg/kg
[2]
  inhibition in vivo at 50 mg/kg: 39.1%
  inhibition in vivo at 100 mg/kg: 50%
  inhibition in vivo at 200 mg/kg: 61.3%

## CC(=O)c1c(C)[nH]c(-c2ccccc2)c1N=Cc1ccc(Cl)cc1 [Example 45, 4-Acetyl-3-(p-chlorobenzylideneamino)-5-methyl-2-phenylpyrrole]
[1]
  LD50: > 1000 mg/kg
[2]
  inhibition in vivo at 50 mg/kg: 23.9%
  inhibition in vivo at 100 mg/kg: 47.9%
  inhibition in vivo at 200 mg/kg: 68.2%

## CCOC(=O)c1c[nH]c(-c2ccccc2)c1N.Cl [Example 6, 3-Amino-4-carbethoxy-2-phenylpyrrole hydrochloride]
[1]
  LD50: > 1000 mg/kg
[2]
  inhibition in vivo at 100 mg/kg: 25.7%
  inhibition in vivo at 200 mg/kg: 35%

## CC(=O)c1c(N=Cc2ccccc2)c(-c2ccccc2)n(C)c1C [Example 49a, 4-acetyl-3-benzylideneamino-1,5-dimethyl-2-phenylpyrrole]
[1]
  LD50: > 1000 mg/kg
[2]
  inhibition in vivo at 100 mg/kg: 31%
  inhibition in vivo at 200 mg/kg: 53.1%

## CC(=O)c1c(C)[nH]c(-c2ccccc2)c1N(C)C [Example 43, 4-Acetyl-3-dimethylamino-5-methyl-2-phenylpyrrole]
[1]
  LD50: > 1000 mg/kg
[2]
  inhibition in vivo at 100 mg/kg: 25.3%
  inhibition in vivo at 200 mg/kg: 45.6%

## CCOC(=O)c1c(C)[nH]c(-c2ccccc2)c1N.Cl [Example 2, 3-Amino-4-carbethoxy-5-methyl-2-phenylpyrrole hydrochloride]
[1]
  LD50: > 1000 mg/kg
[2]
  inhibition in vivo at 100 mg/kg: 36.5%
  inhibition in vivo at 200 mg/kg: 44.3%

## COC(=O)c1c(C(N)=O)[nH]c(-c2ccccc2)c1N [Example 55, 3-Amino-5-carbamoyl-4-carbomethoxy-2-phenyl-pyrrole]
[1]
  LD50: 1000 mg/kg
[2]
  inhibition in vivo at 50 mg/kg: 27.1%
  inhibition in vivo at 100 mg/kg: 41.4%
  inhibition in vivo at 200 mg/kg: 56.3%

## CCOC(=O)c1c(N)c[nH]c1C.Cl [Example 19, 3-Amino-4-carbethoxy-5-methylpyrrole hydrochloride]
[1]
  LD50: 500 mg/kg
[2]
  inhibition in vivo at 50 mg/kg: 24.3%
  inhibition in vivo at 100 mg/kg: 45.9%

## CC(=O)c1c(N(C)C)c(-c2ccccc2)n(Cc2ccccc2Cl)c1C [Example 53, 4-Acetyl-1-(o-chlorobenzyl)-5-methyl-3-dimethylamino-2-phenylpyrrole]
[1]
  LD50: > 1000 mg/kg
[2]
  inhibition in vivo at 100 mg/kg: 30%
  inhibition in vivo at 200 mg/kg: 37.1%

## CC(=O)c1c(C)[nH]c(-c2ccccc2C)c1N [Example 29, 4-Acetyl-3-amino-2-(o-tolyl)-5-methylpyrrole]
[1]
  LD50: > 1000 mg/kg
[2]
  inhibition in vivo at 50 mg/kg: 26.4%
  inhibition in vivo at 100 mg/kg: 33.8%
  inhibition in vivo at 200 mg/kg: 42.6%

## CC(=O)c1c(N(C)C)c(-c2ccccc2)n(Cc2ccc(Cl)cc2)c1C [Example 54, 4-Acetyl-1-(p-chlorobenzyl)-5-methyl-3-dimethylamino-2-phenylpyrrole]
[1]
  LD50: > 1000 mg/kg
[2]
  inhibition in vivo at 100 mg/kg: 38%
  inhibition in vivo at 200 mg/kg: 47.6%

## CC(=O)c1c(C)[nH]c(-c2ccc(C)cc2)c1N [Example 13, 4-Acetyl-3-amino-5-methyl-2-(p-tolyl)-pyrrole]
[1]
  LD50: > 1000 mg/kg
[2]
  inhibition in vivo at 5 mg/kg: 23.2%
  inhibition in vivo at 10 mg/kg: 31.9%
  inhibition in vivo at 20 mg/kg: 43.5%
  inhibition in vivo at 50 mg/kg: 50.7%
  inhibition in vivo at 100 mg/kg: 69.6%
  inhibition in vivo at 200 mg/kg: 75.4%

## COc1ccc(C(=O)c2c(C)[nH]c(-c3ccccc3)c2N)cc1 [Example 24, 3-Amino-4-(p-methoxybenzoyl)-5-methyl-2-phenylpyrrole]
[1]
  LD50: 500 mg/kg
[2]
  inhibition in vivo at 20 mg/kg: 20.6%
  inhibition in vivo at 50 mg/kg: 32.3%
  inhibition in vivo at 100 mg/kg: 42.2%

## CC(=O)c1c(C)[nH]c(-c2ccc(Cl)cc2)c1N [Example 26, 4-Acetyl-3-amino-2-(p-chlorophenyl)-5-methylpyrrole]
[1]
  LD50: > 1000 mg/kg
[2]
  inhibition in vivo at 20 mg/kg: 29.2%
  inhibition in vivo at 50 mg/kg: 43.1%
  inhibition in vivo at 100 mg/kg: 58.5%
  inhibition in vivo at 200 mg/kg: 71%

## CNC(=O)c1c(C)[nH]c(-c2ccccc2)c1N.Cl [Example 31, 3-Amino-5-methyl-4-methylcarbamoyl-2-phenylpyrrole hydrochloride]
[1]
  LD50: ~1000 mg/kg
[2]
  inhibition in vivo at 50 mg/kg: 26.1%
  inhibition in vivo at 100 mg/kg: 34.8%
  inhibition in vivo at 200 mg/kg: 42%

## CC(=O)c1c(C)[nH]c(-c2ccccc2)c1N=Cc1ccccc1 [Example 46, 4-Acetyl-3-benzylideneamino-5-methyl-2-phenylpyrrole]
[1]
  LD50: > 1000 mg/kg
[2]
  inhibition in vivo at 20 mg/kg: 23.9%
  inhibition in vivo at 50 mg/kg: 35.2%
  inhibition in vivo at 100 mg/kg: 47.9%
  inhibition in vivo at 200 mg/kg: 69%

## Cc1[nH]c(-c2ccccc2)c(N)c1C(=O)c1ccccc1 [Example 3, 3-Amino-4-benzoyl-5-methyl-2-phenylpyrrole]
[1]
  LD50: > 1000 mg/kg
[2]
  inhibition in vivo at 100 mg/kg: 40.6%
  inhibition in vivo at 200 mg/kg: 53.9%

## CCOC(=O)c1c(C)[nH]c(-c2ccc(C)cc2)c1N.Cl [Example 15, 3-Amino-4-carbethoxy-5-methyl-2-(p-tolyl)-pyrrole hydrochloride]
[1]
  LD50: > 1000 mg/kg
[3]
  sedative and myorelaxing activity: good degree of sedative and myorelaxing activity
[2]
  inhibition in vivo at 50 mg/kg: 29.6%
  inhibition in vivo at 100 mg/kg: 40.8%
  inhibition in vivo at 200 mg/kg: 58.3%

## CCC(=O)c1c(C)[nH]c(-c2ccccc2)c1N [Example 21, 3-Amino-5-methyl-2-phenyl-4-propionylpyrrole]
[1]
  LD50: 500 mg/kg
[2]
  inhibition in vivo at 20 mg/kg: 25.3%
  inhibition in vivo at 50 mg/kg: 36%
  inhibition in vivo at 100 mg/kg: 43%

## CC(=O)c1c(N)c(-c2ccccc2)n(C)c1C [Example 49b, 4-Acetyl-3-amino-1,5-dimethyl-2-phenyl-pyrrole]
[1]
  LD50: > 1000 mg/kg
[2]
  inhibition in vivo at 50 mg/kg: 11%
  inhibition in vivo at 100 mg/kg: 34.3%
  inhibition in vivo at 200 mg/kg: 52.7%

## CCCC(=O)c1c(C)[nH]c(-c2ccccc2)c1N.Cl [Example 35, 3-Amino-4-butyryl-5-methyl-2-phenylpyrrole hydrochloride]
[1]
  LD50: 500 mg/kg
[2]
  inhibition in vivo at 50 mg/kg: 32.4%
  inhibition in vivo at 100 mg/kg: 42%

## Cc1[nH]c(-c2ccccc2)c(N)c1C(=O)C(C)C [Example 20, 3-Amino-4-isobutyryl-5-methyl-2-phenylpyrrole]
[1]
  LD50: > 1000 mg/kg
[2]
  inhibition in vivo at 50 mg/kg: 24.2%
  inhibition in vivo at 100 mg/kg: 37.3%
  inhibition in vivo at 200 mg/kg: 44.9%

## COc1ccc(-c2[nH]c(C)c(C(C)=O)c2N)cc1 [Example 14, 4-Acetyl-3-amino-2-(p-methoxyphenyl)-5-methylpyrrole]
[1]
  LD50: > 1000 mg/kg
[2]
  inhibition in vivo at 5 mg/kg: 23%
  inhibition in vivo at 10 mg/kg: 31.1%
  inhibition in vivo at 20 mg/kg: 35.1%
  inhibition in vivo at 50 mg/kg: 41.9%
  inhibition in vivo at 100 mg/kg: 55.4%
  inhibition in vivo at 200 mg/kg: 67.6%
